ChEMBL document CHEMBL2057068, “Quinolylhydrazones as novel inhibitors of Plasmodium falciparum serine protease PfSUB1” (Bioorg Med Chem Lett, 2012)

Assays:
[1] = target: T1, Subtilisin-like protease 1 (Plasmodium falciparum) (UniProt O61142); assay: Inhibition of Plasmodium falciparum SUB1 assessed as residual hydrolytic activity at 50 uM by fluorimetric assay
T1 sequence (whole entry): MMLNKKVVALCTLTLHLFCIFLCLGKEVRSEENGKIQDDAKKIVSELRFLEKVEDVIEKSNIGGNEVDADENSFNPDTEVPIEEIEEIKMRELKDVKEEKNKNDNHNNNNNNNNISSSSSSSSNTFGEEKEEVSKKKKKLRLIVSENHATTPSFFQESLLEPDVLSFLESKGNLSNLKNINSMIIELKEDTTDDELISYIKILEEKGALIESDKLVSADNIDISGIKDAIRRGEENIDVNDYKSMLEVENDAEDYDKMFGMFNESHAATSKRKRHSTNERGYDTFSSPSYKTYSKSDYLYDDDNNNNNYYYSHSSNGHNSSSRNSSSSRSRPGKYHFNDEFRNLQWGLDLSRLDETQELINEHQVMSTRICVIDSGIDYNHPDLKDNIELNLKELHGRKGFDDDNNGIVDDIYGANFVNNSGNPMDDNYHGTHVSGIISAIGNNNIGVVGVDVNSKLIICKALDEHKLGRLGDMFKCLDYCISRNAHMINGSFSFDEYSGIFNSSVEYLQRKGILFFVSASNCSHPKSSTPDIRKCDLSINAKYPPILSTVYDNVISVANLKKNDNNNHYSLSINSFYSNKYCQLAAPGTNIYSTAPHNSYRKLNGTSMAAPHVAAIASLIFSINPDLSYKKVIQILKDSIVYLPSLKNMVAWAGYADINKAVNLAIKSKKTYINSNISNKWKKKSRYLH

[2] = target: T2, Subtilisin-like protease 1 (Plasmodium falciparum, UniProt O61142); assay: Inhibition of Plasmodium falciparum SUB1 by fluorimetric assay
T2 sequence (O61142 whole entry): T1 sequence (whole entry)

Cc1cc(N/N=C/c2ccc(NS(C)(=O)=O)cc2)c2cc3c(cc2n1)OCO3
Activity [1]: 72.2%

O=C(NNc1nc2ccccc2[nH]1)c1ccc([N+](=O)[O-])cc1
Activity [1]: 46.7%

N#Cc1ccc(/C=N/Nc2c3c(nc4ccccc24)CCCC3)cc1
Activity [1]: 81.5%

Cc1cc(N/N=C/c2ccc(/C(N)=N/O)cc2)c2cc3c(cc2n1)OCO3
Activity [1]: 73.9%

CC(=O)Nc1ccc(/C=N/Nc2cc(C)nc3cc4c(cc23)OCO4)cc1
Activity [1]: 70.9%

Cc1cc(N/N=C/c2ccc(C(F)(F)F)cc2C(F)(F)F)c2cc3c(cc2n1)OCO3
Activity [1]: 62.1%

Cc1cc(N/N=C/c2ccc([S+](C)[O-])cc2)c2cc3c(cc2n1)OCO3 (configuration not stated)
Activity [1]: 92.4%

Cc1cc(N/N=C/c2ccccc2[N+](=O)[O-])c2cc3c(cc2n1)OCO3
IC50 [2]: 40 µM | Activity [1]: 38.6%

C/C(=N\Nc1cc(C)nc2cc3c(cc12)OCO3)c1ccc([N+](=O)[O-])cc1
Activity [1]: 60.3%

Cc1cc(N/N=C/c2ccc(C#N)cc2)c2ccccc2n1
Activity [1]: 85%

Cc1cc(N/N=C/c2ccc(C=O)cc2)c2cc3c(cc2n1)OCO3
Activity [1]: 86.5%

Cc1cc(/N=C/c2ccc([N+](=O)[O-])cc2)c2cc3c(cc2n1)OCO3
Activity [1]: 72.2%

Cc1cc(NNC(=O)c2ccc(S(C)(=O)=O)cc2)c2cc3c(cc2n1)OCO3
Activity [1]: 68.7%

CCOC(OCC)c1ccc(/C=N/Nc2cc(C)nc3cc4c(cc23)OCO4)cc1
Activity [1]: 75.6%

O=[N+]([O-])c1ccc(/C=N/Nc2c3c(nc4ccccc24)CCCC3)cc1
IC50 [2]: > 50 µM | Activity [1]: 55.8%

Cc1cc(N/N=C/c2ccc(F)cc2)c2cc3c(cc2n1)OCO3
Activity [1]: 97%

Cc1cc(NNC(=O)c2ccc(C#N)cc2)c2cc3c(cc2n1)OCO3
Activity [1]: 85.5%

N#Cc1ccc(/C=N/Nc2ccnc3ccccc23)cc1
Activity [1]: 74.3%

O=[N+]([O-])c1ccc(/C=N/Nc2ccnc3ccccc23)cc1
Activity [1]: 80.6%

Cc1cc(N/N=C/c2cccc([N+](=O)[O-])c2)c2cc3c(cc2n1)OCO3
Activity [1]: 97.2%

Cc1cc(N/N=C/c2ccc(C#N)cc2)c2cc3c(cc2n1)OCO3
IC50 [2]: 40 µM | Activity [1]: 29.2%

O=[N+]([O-])c1ccc(/C=N/Nc2ccncc2)cc1
Activity [1]: 84.6%

Cc1cc(N/N=C/c2ccc(Br)cc2)c2cc3c(cc2n1)OCO3
Activity [1]: 78.2%

Cc1cc(N/N=C/c2ccccc2C(F)(F)F)c2cc3c(cc2n1)OCO3
Activity [1]: 100%

Cc1cc(NNC(=O)c2ccc([N+](=O)[O-])cc2)c2cc3c(cc2n1)OCO3
Activity [1]: 64.4%

COc1ccc2nc(C)cc(N/N=C/c3ccc([N+](=O)[O-])cc3)c2c1
IC50 [2]: 20 µM | Activity [1]: 12.3%

COc1ccc2nccc(N/N=C/c3ccc([N+](=O)[O-])cc3)c2c1
IC50 [2]: 50 µM | Activity [1]: 32.4%

Cc1cc(N/N=C/c2ccc(Cl)cc2)c2cc3c(cc2n1)OCO3
Activity [1]: 77.9%

Cc1cc(N/N=C/c2ccc(C(=O)O)cc2)c2cc3c(cc2n1)OCO3
Activity [1]: 75.5%

COC(=O)c1ccc(/C=N/Nc2cc(C)nc3cc4c(cc23)OCO4)cc1
Activity [1]: 85%

O=[N+]([O-])c1ccc(C=NNc2nc3ccccc3[nH]2)cc1
IC50 [2]: > 50 µM | Activity [1]: 43.1%

Cc1cc(N/N=C/c2ccc(C(F)(F)F)cc2)c2cc3c(cc2n1)OCO3
Activity [1]: 86.1%

Cc1cc(N/N=C/c2ccc([N+](=O)[O-])cc2)c2cc3c(cc2n1)OCO3
IC50 [2]: 20 µM | Activity [1]: 27.2%

Cc1cc(N/N=C/c2ccc(S(C)(=O)=O)cc2)c2cc3c(cc2n1)OCO3
Activity [1]: 76.4%

CSc1ccc(/C=N/Nc2cc(C)nc3cc4c(cc23)OCO4)cc1
Activity [1]: 77.5%
